Results taken from PubChem BioAssay (NCI).
Values joined by “and” are separate entries in the source; they are usually repeats but may differ in a detail not shown here. Equal entries are not always repeated.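 Method: 48-hour compound exposure of cells in 96-well plates, five concentrations, linear interpolation of endpoints. GI50 is the concentration that inhibits growth by half. TGI denotes the concentration required for complete inhibition of growth.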

Test system: HCT-15 colon
Test: growth of human tumour cells (NCI), 48 h

Row | SMILES | TGI | GI50
1 | O=C(CCCn1ccnc1[N+](=O)[O-])NCCn1cncc1[N+](=O)[O-] | > 100 µM | 
2 | C[As](C)SC1OC(CO)C(O)C1O (stereo unspecified) | 1.12 µM | 0.238 µM
3 | CCCCCCCCCC/C=C/CC(=O)SCCNC(=O)CCNC(=O)[C@@H](O)C(C)(C)COP(=O)(O)OP(=O)(O)OCC1OC(n2cnc3c(N)ncnc32)C(O)C1OP(=O)(O)O (stereo partly specified) | > 10 µM | 
4 | Cn1c(=O)c2c(nc(Nc3cc(=O)[nH]c(=O)[nH]3)n2Cc2ccccc2)n(C)c1=O | > 100 µM | > 100 µM
5 | COc1ccc2c(c1)CCC1C2CC[C@@]2(C)C1CC1=CC(COC(C)=O)C3C(=O)c4ccccc4C(=O)C3C12 (stereo partly specified) | > 100 µM | > 100 µM
6 | C=C(F)C(=O)N1CCN(c2nc(OC[C@@H]3CCCN3C)nc3c2CCN(c2cccc4cccc(Cl)c24)C3)C[C@@H]1CC#N | 2.06 µM | 0.56 µM
7 | Cc1c2cccnc2c(C)c2c1c1cc(CO)ccc1n2C | 15.4 µM | 2 µM
8 | CC/C(=C(/c1ccc(OCCN(C)C)cc1)c1ccc(OC(=O)CCCCC(=O)c2c(C)[nH]c(/C=C3\N=C(c4ccc[nH]4)C=C3OC)c2C)cc1)c1ccccc1 | 28.5 µM | 4.44 µM
9 | CC[C@]12C=CCN3CC[C@@]4(c5ccc(OC)cc5N(C)[C@H]4[C@@](O)(C(=O)OC)[C@@H]1OC(=O)CCC[P+](c1ccccc1)(c1ccccc1)c1ccccc1)[C@@H]32 | 20.7 µM and 28.8 µM | 8.69 µM and 14.2 µM
10 | CC(=O)OC1Oc2ccccc2-c2oc(=O)c(-c3cc(=O)oc4cc(O)ccc34)cc21 (stereo unspecified) | 96.4 µM | 21.3 µM
11 | Ic1ccc(Nc2nc3nonc3nc2Nc2ccc(I)cc2)cc1 | > 100 µM | 0.144 µM
12 | CC(SC(C)C(=O)N/N=C/c1cccc(Cl)c1)C(=O)N/N=C\c1cccc(Cl)c1 (stereo unspecified) | > 100 µM | 32.3 µM
13 | CCOC(=O)/C=C/C(C(=O)/C=C/c1ccc(OC2CCCCO2)c(OC)c1)=C(O)\C=C\c1ccc(OC2CCCCO2)c(OC)c1 (stereo unspecified) | 12.6 µM | 3.59 µM
14 | Cc1ccc(Cl)cc1Nc1nc(C(F)(F)F)ccc1C(=O)N1CCN(c2ccc(F)cc2)CC1 | 29.3 µM | 13.2 µM
15 | O=C(Nc1ccc(OS(=O)(=O)c2ccccc2)cc1)C12CC3CC(CC(C3)C1)C2 | > 100 µM | 0.997 µM
16 | O=S(=O)([O-])c1ccc2c(c1)-c1nc-2nc2[n-]c(nc3nc(nc4[n-]c(n1)c1ccc(S(=O)(=O)[O-])cc41)-c1cc(S(=O)(=O)[O-])ccc1-3)c1ccc(S(=O)(=O)[O-])cc21.[Cu+2].[Na+] | 36.4 µM | 0.977 µM
17 | CCN1CCN(c2ccc(Nc3cc(N(C)C(=O)Nc4c(Cl)c(OC)cc(OC)c4Cl)ncn3)cc2)CC1 | 8.94 µM | 1.87 µM
18 | CC(C)c1ccc(Nc2ccc3c(OCCCN4CCN(C)CC4)cccc3n2)cc1 | 4.28 µM | 1.94 µM
19 | COc1ccc(N(C)c2ncnc3occ(C)c23)cc1 |  | < 0.01 µM
20 | O=C1NC(=Nc2ccccc2)S/C1=C\c1ccc2ncccc2c1 | > 25 µM | 1.1 µM
21 | C/C1=C\CC[C@@]2(C)O[C@@H]2[C@H]2OC(=O)[C@@H](CN(C)C)[C@@H]2CC1 | 34.3 µM | 15.9 µM
22 | C=C(C)[C@@]12OC3(/C=C/C=C/CCCCC)O[C@@H]1[C@@H]1[C@@H]4O[C@]4(CO)[C@@H](O)[C@]4(O)C(=O)C(C)=C[C@H]4[C@@]1(O3)[C@H](C)[C@H]2OC(=O)c1ccccc1 | 2.9 µM | 1.42 µM
23 | C/C(=C\CCc1ccoc1)CC/C=C(\C)CCCC1=CC(=O)OC1 | 20 µM | 4.47 µM
24 | NC(=NCCCOc1ccc(Cl)cc1)Nc1ccc(C(F)(F)F)cc1 | 4.15 µM | 1.72 µM

Test system: COLO 205 colon
Test: growth of human tumour cells (NCI), 48 h

Row | SMILES | TGI | GI50
25 | O=C(CCCn1ccnc1[N+](=O)[O-])NCCn1cncc1[N+](=O)[O-] | > 100 µM | 
26 | C[As](C)SC1OC(CO)C(O)C1O (stereo unspecified) | 10.8 µM | 0.505 µM
27 | CCCCCCCCCC/C=C/CC(=O)SCCNC(=O)CCNC(=O)[C@@H](O)C(C)(C)COP(=O)(O)OP(=O)(O)OCC1OC(n2cnc3c(N)ncnc32)C(O)C1OP(=O)(O)O (stereo partly specified) | > 10 µM | 
28 | Cn1c(=O)c2c(nc(Nc3cc(=O)[nH]c(=O)[nH]3)n2Cc2ccccc2)n(C)c1=O | > 100 µM | > 100 µM
29 | COc1ccc2c(c1)CCC1C2CC[C@@]2(C)C1CC1=CC(COC(C)=O)C3C(=O)c4ccccc4C(=O)C3C12 (stereo partly specified) | > 100 µM | > 100 µM
30 | C=C(F)C(=O)N1CCN(c2nc(OC[C@@H]3CCCN3C)nc3c2CCN(c2cccc4cccc(Cl)c24)C3)C[C@@H]1CC#N | 1.98 µM | 0.578 µM
31 | Cc1c2cccnc2c(C)c2c1c1cc(CO)ccc1n2C | 6.11 µM | 1.51 µM
32 | CC/C(=C(/c1ccc(OCCN(C)C)cc1)c1ccc(OC(=O)CCCCC(=O)c2c(C)[nH]c(/C=C3\N=C(c4ccc[nH]4)C=C3OC)c2C)cc1)c1ccccc1 | 23.2 µM | 10.7 µM
33 | CC[C@]12C=CCN3CC[C@@]4(c5ccc(OC)cc5N(C)[C@H]4[C@@](O)(C(=O)OC)[C@@H]1OC(=O)CCC[P+](c1ccccc1)(c1ccccc1)c1ccccc1)[C@@H]32 | 0.611 µM and 0.454 µM | 0.161 µM and 0.208 µM
34 | CC(=O)OC1Oc2ccccc2-c2oc(=O)c(-c3cc(=O)oc4cc(O)ccc34)cc21 (stereo unspecified) | 51.2 µM | 18.2 µM
35 | Ic1ccc(Nc2nc3nonc3nc2Nc2ccc(I)cc2)cc1 | 0.937 µM | 0.265 µM
36 | CC(SC(C)C(=O)N/N=C/c1cccc(Cl)c1)C(=O)N/N=C\c1cccc(Cl)c1 (stereo unspecified) | 38.9 µM | 11.6 µM
37 | CCOC(=O)/C=C/C(C(=O)/C=C/c1ccc(OC2CCCCO2)c(OC)c1)=C(O)\C=C\c1ccc(OC2CCCCO2)c(OC)c1 (stereo unspecified) | 11.4 µM | 3.1 µM
38 | Cc1ccc(Cl)cc1Nc1nc(C(F)(F)F)ccc1C(=O)N1CCN(c2ccc(F)cc2)CC1 | 30.2 µM | 15.8 µM
39 | O=C(Nc1ccc(OS(=O)(=O)c2ccccc2)cc1)C12CC3CC(CC(C3)C1)C2 | > 100 µM | 0.873 µM
40 | O=S(=O)([O-])c1ccc2c(c1)-c1nc-2nc2[n-]c(nc3nc(nc4[n-]c(n1)c1ccc(S(=O)(=O)[O-])cc41)-c1cc(S(=O)(=O)[O-])ccc1-3)c1ccc(S(=O)(=O)[O-])cc21.[Cu+2].[Na+] | > 62 µM | 6.96 µM
41 | CCN1CCN(c2ccc(Nc3cc(N(C)C(=O)Nc4c(Cl)c(OC)cc(OC)c4Cl)ncn3)cc2)CC1 | 3.47 µM | 1.93 µM
42 | CC(C)c1ccc(Nc2ccc3c(OCCCN4CCN(C)CC4)cccc3n2)cc1 | 3.96 µM | 1.97 µM
43 | COc1ccc(N(C)c2ncnc3occ(C)c23)cc1 | < 0.0105 µM | < 0.01 µM
44 | O=C1NC(=Nc2ccccc2)S/C1=C\c1ccc2ncccc2c1 | > 25 µM | > 25 µM
45 | C/C1=C\CC[C@@]2(C)O[C@@H]2[C@H]2OC(=O)[C@@H](CN(C)C)[C@@H]2CC1 | 98.4 µM | 33.8 µM
46 | C=C(C)[C@@]12OC3(/C=C/C=C/CCCCC)O[C@@H]1[C@@H]1[C@@H]4O[C@]4(CO)[C@@H](O)[C@]4(O)C(=O)C(C)=C[C@H]4[C@@]1(O3)[C@H](C)[C@H]2OC(=O)c1ccccc1 | 1.6 µM | < 0.01 µM
47 | C/C(=C\CCc1ccoc1)CC/C=C(\C)CCCC1=CC(=O)OC1 | 23.1 µM | 4.96 µM
48 | NC(=NCCCOc1ccc(Cl)cc1)Nc1ccc(C(F)(F)F)cc1 | 3.25 µM | 1.54 µM

Test system: HOP-62 NSCLC
Test: growth of human tumour cells (NCI), 48 h

Row | SMILES | TGI | GI50
49 | O=C(CCCn1ccnc1[N+](=O)[O-])NCCn1cncc1[N+](=O)[O-] | > 100 µM | 
50 | C[As](C)SC1OC(CO)C(O)C1O (stereo unspecified) | 13.4 µM | 3.58 µM
51 | CCCCCCCCCC/C=C/CC(=O)SCCNC(=O)CCNC(=O)[C@@H](O)C(C)(C)COP(=O)(O)OP(=O)(O)OCC1OC(n2cnc3c(N)ncnc32)C(O)C1OP(=O)(O)O (stereo partly specified) | > 10 µM | 
52 | Cn1c(=O)c2c(nc(Nc3cc(=O)[nH]c(=O)[nH]3)n2Cc2ccccc2)n(C)c1=O | > 100 µM | > 100 µM
53 | COc1ccc2c(c1)CCC1C2CC[C@@]2(C)C1CC1=CC(COC(C)=O)C3C(=O)c4ccccc4C(=O)C3C12 (stereo partly specified) | > 100 µM | > 100 µM
54 | C=C(F)C(=O)N1CCN(c2nc(OC[C@@H]3CCCN3C)nc3c2CCN(c2cccc4cccc(Cl)c24)C3)C[C@@H]1CC#N | 1.48 µM | < 0.01 µM
55 | Cc1c2cccnc2c(C)c2c1c1cc(CO)ccc1n2C | 6.52 µM | 1.31 µM
56 | CC/C(=C(/c1ccc(OCCN(C)C)cc1)c1ccc(OC(=O)CCCCC(=O)c2c(C)[nH]c(/C=C3\N=C(c4ccc[nH]4)C=C3OC)c2C)cc1)c1ccccc1 | 24.7 µM | 12.3 µM
57 | CC[C@]12C=CCN3CC[C@@]4(c5ccc(OC)cc5N(C)[C@H]4[C@@](O)(C(=O)OC)[C@@H]1OC(=O)CCC[P+](c1ccccc1)(c1ccccc1)c1ccccc1)[C@@H]32 | 7.71 µM and 7.08 µM | 1.84 µM and 2.18 µM
58 | CC(=O)OC1Oc2ccccc2-c2oc(=O)c(-c3cc(=O)oc4cc(O)ccc34)cc21 (stereo unspecified) | 55.2 µM | 20.8 µM
59 | Ic1ccc(Nc2nc3nonc3nc2Nc2ccc(I)cc2)cc1 | 0.961 µM | 0.302 µM
